Experimental data taken from the supplement of paper PMC8882468.

system: HCI-008 (organoid from a HER2-enriched breast cancer xenograft); experiment: CTG-3D luminescence at 96 h relative to day-0 seeding control (ratio to day 0); higher = more growth / less cytotoxicity; PDxO 3D drug screen (set 2), 96 h, CTG-3D normalised to day-0 seeding control.; settings: 10 µM; days in culture: 382

SMILES | CTG-3D luminescence at 96 h
Nc1cc(C(F)(F)F)c(-c2cc(N3CCOCC3)nc(N3CCOCC3)n2)cn1 [buparlisib] | 0.363

same assay, conditions: 100 µM; days in culture: 325

SMILES | CTG-3D luminescence at 96 h
CC(C)n1nc(-c2ccc3oc(N)nc3c2)c2c(N)ncnc21 [sapanisertib] | 0.112
C[C@@H](Nc1cc(F)cc(F)c1)c1cc(C(=O)N(C)C)cc2c(=O)cc(N3CCOCC3)oc12 [AZD-8186] | 0.315
CC(=O)c1c(C)c2cnc(Nc3ccc(N4CCNCC4)cn3)nc2n(C2CCCC2)c1=O [palbociclib] | 0.962
Cc1c(CN2CCN(C(=O)[C@H](C)O)CC2)sc2c(N3CCOCC3)nc(-c3cnc(N)nc3)nc12 [apitolisib] | 0.435
CS(=O)(=O)CCNCc1ccc(-c2ccc3ncnc(Nc4ccc(OCc5cccc(F)c5)c(Cl)c4)c3c2)o1 [lapatinib] | 0.0242
CCOc1ccn(-c2ccc(F)cc2)c(=O)c1C(=O)Nc1ccc(Oc2ccnc(N)c2Cl)c(F)c1 [ASLAN002] | 1.08
Nc1cc(C(F)(F)F)c(-c2cc(N3CCOCC3)nc(N3CCOCC3)n2)cn1 [buparlisib] | 0.313

same assay, conditions: 100 µM; days in culture: 340

SMILES | CTG-3D luminescence at 96 h
CC(C)n1nc(-c2ccc3oc(N)nc3c2)c2c(N)ncnc21 [sapanisertib] | 0.0751
C[C@@H](Nc1cc(F)cc(F)c1)c1cc(C(=O)N(C)C)cc2c(=O)cc(N3CCOCC3)oc12 [AZD-8186] | 0.345
CC(=O)c1c(C)c2cnc(Nc3ccc(N4CCNCC4)cn3)nc2n(C2CCCC2)c1=O [palbociclib] | 1.18
Cc1c(CN2CCN(C(=O)[C@H](C)O)CC2)sc2c(N3CCOCC3)nc(-c3cnc(N)nc3)nc12 [apitolisib] | 0.351
CS(=O)(=O)CCNCc1ccc(-c2ccc3ncnc(Nc4ccc(OCc5cccc(F)c5)c(Cl)c4)c3c2)o1 [lapatinib] | 0.0374
CCOc1ccn(-c2ccc(F)cc2)c(=O)c1C(=O)Nc1ccc(Oc2ccnc(N)c2Cl)c(F)c1 [ASLAN002] | 0.867
Nc1cc(C(F)(F)F)c(-c2cc(N3CCOCC3)nc(N3CCOCC3)n2)cn1 [buparlisib] | 0.305

same assay, conditions: 100 µM; days in culture: 354

SMILES | CTG-3D luminescence at 96 h
CC(C)n1nc(-c2ccc3oc(N)nc3c2)c2c(N)ncnc21 [sapanisertib] | 0.122
C[C@@H](Nc1cc(F)cc(F)c1)c1cc(C(=O)N(C)C)cc2c(=O)cc(N3CCOCC3)oc12 [AZD-8186] | 0.353
CC(=O)c1c(C)c2cnc(Nc3ccc(N4CCNCC4)cn3)nc2n(C2CCCC2)c1=O [palbociclib] | 1.21
Cc1c(CN2CCN(C(=O)[C@H](C)O)CC2)sc2c(N3CCOCC3)nc(-c3cnc(N)nc3)nc12 [apitolisib] | 0.491
CS(=O)(=O)CCNCc1ccc(-c2ccc3ncnc(Nc4ccc(OCc5cccc(F)c5)c(Cl)c4)c3c2)o1 [lapatinib] | 0.00653
CCOc1ccn(-c2ccc(F)cc2)c(=O)c1C(=O)Nc1ccc(Oc2ccnc(N)c2Cl)c(F)c1 [ASLAN002] | 0.857
Nc1cc(C(F)(F)F)c(-c2cc(N3CCOCC3)nc(N3CCOCC3)n2)cn1 [buparlisib] | 0.327

same assay, conditions: 100 µM; days in culture: 382

SMILES | CTG-3D luminescence at 96 h
CC(C)n1nc(-c2ccc3oc(N)nc3c2)c2c(N)ncnc21 [sapanisertib] | 0.0604
C[C@@H](Nc1cc(F)cc(F)c1)c1cc(C(=O)N(C)C)cc2c(=O)cc(N3CCOCC3)oc12 [AZD-8186] | 0.193
CC(=O)c1c(C)c2cnc(Nc3ccc(N4CCNCC4)cn3)nc2n(C2CCCC2)c1=O [palbociclib] | 0.974
Cc1c(CN2CCN(C(=O)[C@H](C)O)CC2)sc2c(N3CCOCC3)nc(-c3cnc(N)nc3)nc12 [apitolisib] | 0.331
CS(=O)(=O)CCNCc1ccc(-c2ccc3ncnc(Nc4ccc(OCc5cccc(F)c5)c(Cl)c4)c3c2)o1 [lapatinib] | 0.00105
CCOc1ccn(-c2ccc(F)cc2)c(=O)c1C(=O)Nc1ccc(Oc2ccnc(N)c2Cl)c(F)c1 [ASLAN002] | 0.377
Nc1cc(C(F)(F)F)c(-c2cc(N3CCOCC3)nc(N3CCOCC3)n2)cn1 [buparlisib] | 0.104

same assay, conditions: 625 fM; days in culture: 325

SMILES | CTG-3D luminescence at 96 h
CC(C)n1nc(-c2ccc3oc(N)nc3c2)c2c(N)ncnc21 [sapanisertib] | 1.88
C[C@@H](Nc1cc(F)cc(F)c1)c1cc(C(=O)N(C)C)cc2c(=O)cc(N3CCOCC3)oc12 [AZD-8186] | 1.35
CC(=O)c1c(C)c2cnc(Nc3ccc(N4CCNCC4)cn3)nc2n(C2CCCC2)c1=O [palbociclib] | 1.8
Cc1c(CN2CCN(C(=O)[C@H](C)O)CC2)sc2c(N3CCOCC3)nc(-c3cnc(N)nc3)nc12 [apitolisib] | 1.77
CS(=O)(=O)CCNCc1ccc(-c2ccc3ncnc(Nc4ccc(OCc5cccc(F)c5)c(Cl)c4)c3c2)o1 [lapatinib] | 1.5
CCOc1ccn(-c2ccc(F)cc2)c(=O)c1C(=O)Nc1ccc(Oc2ccnc(N)c2Cl)c(F)c1 [ASLAN002] | 2.16
Nc1cc(C(F)(F)F)c(-c2cc(N3CCOCC3)nc(N3CCOCC3)n2)cn1 [buparlisib] | 1.94

same assay, conditions: 625 fM; days in culture: 340

SMILES | CTG-3D luminescence at 96 h
CC(C)n1nc(-c2ccc3oc(N)nc3c2)c2c(N)ncnc21 [sapanisertib] | 0.965
C[C@@H](Nc1cc(F)cc(F)c1)c1cc(C(=O)N(C)C)cc2c(=O)cc(N3CCOCC3)oc12 [AZD-8186] | 1.48
CC(=O)c1c(C)c2cnc(Nc3ccc(N4CCNCC4)cn3)nc2n(C2CCCC2)c1=O [palbociclib] | 1.13
Cc1c(CN2CCN(C(=O)[C@H](C)O)CC2)sc2c(N3CCOCC3)nc(-c3cnc(N)nc3)nc12 [apitolisib] | 1.52
CS(=O)(=O)CCNCc1ccc(-c2ccc3ncnc(Nc4ccc(OCc5cccc(F)c5)c(Cl)c4)c3c2)o1 [lapatinib] | 1.39
CCOc1ccn(-c2ccc(F)cc2)c(=O)c1C(=O)Nc1ccc(Oc2ccnc(N)c2Cl)c(F)c1 [ASLAN002] | 0.758
Nc1cc(C(F)(F)F)c(-c2cc(N3CCOCC3)nc(N3CCOCC3)n2)cn1 [buparlisib] | 1.04

same assay, conditions: 625 fM; days in culture: 354

SMILES | CTG-3D luminescence at 96 h
CC(C)n1nc(-c2ccc3oc(N)nc3c2)c2c(N)ncnc21 [sapanisertib] | 1.31
C[C@@H](Nc1cc(F)cc(F)c1)c1cc(C(=O)N(C)C)cc2c(=O)cc(N3CCOCC3)oc12 [AZD-8186] | 1.32
CC(=O)c1c(C)c2cnc(Nc3ccc(N4CCNCC4)cn3)nc2n(C2CCCC2)c1=O [palbociclib] | 0.693
Cc1c(CN2CCN(C(=O)[C@H](C)O)CC2)sc2c(N3CCOCC3)nc(-c3cnc(N)nc3)nc12 [apitolisib] | 1.32
CS(=O)(=O)CCNCc1ccc(-c2ccc3ncnc(Nc4ccc(OCc5cccc(F)c5)c(Cl)c4)c3c2)o1 [lapatinib] | 1.13
CCOc1ccn(-c2ccc(F)cc2)c(=O)c1C(=O)Nc1ccc(Oc2ccnc(N)c2Cl)c(F)c1 [ASLAN002] | 1.08
Nc1cc(C(F)(F)F)c(-c2cc(N3CCOCC3)nc(N3CCOCC3)n2)cn1 [buparlisib] | 1.16

same assay, conditions: 625 fM; days in culture: 382

SMILES | CTG-3D luminescence at 96 h
CC(C)n1nc(-c2ccc3oc(N)nc3c2)c2c(N)ncnc21 [sapanisertib] | 1.7
C[C@@H](Nc1cc(F)cc(F)c1)c1cc(C(=O)N(C)C)cc2c(=O)cc(N3CCOCC3)oc12 [AZD-8186] | 1.86
CC(=O)c1c(C)c2cnc(Nc3ccc(N4CCNCC4)cn3)nc2n(C2CCCC2)c1=O [palbociclib] | 1.59
Cc1c(CN2CCN(C(=O)[C@H](C)O)CC2)sc2c(N3CCOCC3)nc(-c3cnc(N)nc3)nc12 [apitolisib] | 1.49
CS(=O)(=O)CCNCc1ccc(-c2ccc3ncnc(Nc4ccc(OCc5cccc(F)c5)c(Cl)c4)c3c2)o1 [lapatinib] | 1.22
